Assay results from ChEMBL document CHEMBL6078703, “Discovery of Novel Thiophene-Based Baloxavir Derivatives as Potent Cap-Dependent Endonuclease Inhibitors for Influenza Treatment” (J Med Chem, 2024).
Active and inactive are the calls of the source. The calls are words filed in the database; no cut-off is given here.

Key:
Influenza A virus [1] = assay: Antiviral activity against influenza strain A/WSN/1933 (H1N1) infected in MDCK cells assessed as reduction of virus-induced cytopathic effect measured after 2 days incubation; assay type: functional, organism-based; settings: 48 h
[2] = Selectivity index, ratio of CC50 for dog MDCK cells to EC50 for antiviral activity against influenza strain A/WSN/1933 (H1N1) infected in MDCK cells; assay type: toxicity, cell-based; settings: read-out: Selectivity Index
Influenza A virus [3] = assay: Antiviral activity against influenza strain A/Aichi/ 2/1968 (H3N2) infected in MDCK cells assessed as reduction of virus-induced cytopathic effect measured after 2 days incubation; assay type: functional, organism-based; settings: 48 h
[4] = Cytotoxicity against dog MDCK cells assessed as cell viability measured after 48 hrs by CCK-8 assay; assay type: toxicity, cell-based, Canis lupus familiaris
[5] = Selectivity index, ratio of CC50 for dog MDCK cells to EC50 for antiviral activity against influenza strain A/Aichi/ 2/1968 (H3N2) infected in MDCK cells; assay type: toxicity, cell-based; settings: read-out: Selectivity Index
[6] = Metabolic stability in human liver microsomes assessed as half life measured up to 60 mins by LC-MS/MS analysis; assay type: ADME, Microsome
[7] = Metabolic stability in mouse liver microsomes assessed as half life measured up to 60 mins by LC-MS/MS analysis; assay type: ADME, Microsome
[8] = Metabolic stability in human liver microsomes assessed as intrinsic clearance measured up to 60 mins by LC-MS/MS analysis; assay type: ADME, Microsome; settings: read-out: CLH
[9] = Metabolic stability in mouse liver microsomes assessed as intrinsic clearance measured up to 60 mins by LC-MS/MS analysis; assay type: ADME, Microsome; settings: read-out: CLH
[10] = Cytotoxicity against human 786O cells assessed as cell viability measured after 48 hrs by CCK-8 assay; assay type: toxicity, cell-based, 786-0
[11] = Cytotoxicity against human Huh-7 cells assessed as cell viability measured after 48 hrs by CCK-8 assay; assay type: toxicity, cell-based
[12] = Cytotoxicity against human HepG2 cells assessed as cell viability measured after 48 hrs by CCK-8 assay; assay type: toxicity, cell-based
[13] = Cytotoxicity against human Hep3B cells assessed as cell viability measured after 48 hrs by CCK-8 assay; assay type: toxicity, cell-based, Hep 3B2
[14] = AUC (0 to infinity) in CD-1 mouse at 15 mg/kg, po measured up to 24 hrs by LC-MS/MS analysis; assay type: ADME, organism-based; settings: mouse, in vivo, po, 15 mg/kg, 24 h
[15] = Oral bioavailability in CD-1 mouse at 15 mg/kg measured up to 24 hrs by LC-MS/MS analysis; assay type: ADME, organism-based; settings: mouse, in vivo, po, 15 mg/kg, 24 h
[16] = AUC (0 to infinity) in CD-1 mouse at 1 mg/kg, iv measured up to 24 hrs by LC-MS/MS analysis; assay type: ADME, organism-based; settings: mouse, in vivo, iv, 1 mg/kg, 24 h
Influenza A virus [17] = assay: In vivo antiviral activity against influenza strain A/WSN/1933 (H1N1) infected in BALB/c mouse assessed as weight regaining at 10 to 40 mg/kg, IG treated 12 hrs after infection measured on 9 dpi; assay type: functional, organism-based; settings: dose 10-40 mg/kg, time 9.0 day
Influenza A virus [18] = assay: In vivo antiviral activity against influenza strain A/WSN/1933 (H1N1) infected in BALB/c mouse assessed as increase in mouse survival at 10 to 40 mg/kg, IG treated 12 hrs after infection measured on 9 dpi; assay type: functional, organism-based; settings: dose 10-40 mg/kg, time 9.0 day
Influenza A virus [19] = assay: In vivo antiviral activity against influenza strain A/WSN/1933 (H1N1) infected in BALB/c mouse assessed as improvement in alveolar collapse in lungs at 20 to 40 mg/kg, IG treated 12 hrs after infection measured on 9 dpi by histopathological analysis; assay type: functional, organism-based; settings: dose 20-40 mg/kg, time 9.0 day
Influenza A virus [20] = assay: In vivo antiviral activity against influenza strain A/WSN/1933 (H1N1) infected in BALB/c mouse assessed as improvement in septal thickening in lungs at 20 to 40 mg/kg, IG treated 12 hrs after infection measured on 9 dpi by histopathological analysis; assay type: functional, organism-based; settings: dose 20-40 mg/kg, time 9.0 day
Influenza A virus [21] = assay: Antiviral activity against influenza virus clinical strain H3N2 (A/Guangdong/2/2023) infected in MDCK cells assessed as reduction of virus-induced cytopathic effect measured after 2 days incubation; assay type: functional, organism-based; settings: 48 h

Compound	EC50 (Influenza A virus [1]) [nM]	selectivity ratio [2]	EC50 (Influenza A virus [3]) [nM]	CC50 at 48 h [4] [nM]	selectivity ratio [5]	also measured
O=C1c2c(O)c(=O)ccn2N([C@H](c2ccc(F)cc2)c2cccs2)[C@@H]2COCCN12	3.19	8390	–	–	–	–
O=C1c2c(O)c(=O)ccn2N([C@H](c2ccc(F)c(F)c2)c2cccs2)[C@@H]2COCCN12	8.04	3140	3.08	25200	8200	half-life [6]: 4.45 h; half-life [7]: 7.7 h; CLint scaled [8]: 4.68 mL/min/kg; CLint scaled [9]: 11.9 mL/min/kg
O=C1c2c(O)c(=O)ccn2N([C@@H](c2ccc(F)c(F)c2)c2ccc(Cl)s2)[C@@H]2COCCN12	29.2	663	51.9	19400	373	–
O=C1c2c(O)c(=O)ccn2N([C@@H]2c3ccccc3SCc3c2ccc(F)c3F)[C@@H]2COCCN12 [BALOXAVIR]	1.76	5290	3.81	–	2440	CC50 at 48 h [10]: 2860 nM; CC50 at 48 h [11]: 9340 nM; CC50 at 48 h [12]: 19100 nM; CC50 at 48 h [13]: 7380 nM; AUC [14]: 2877 ng·h/mL; F [15]: 27.2%; AUC [16]: 239 ng·h/mL; Activity (Influenza A virus [17]): Active; Surviving Animals Gradually Starting Weight Weight Beginning 9 Dpi; Activity (Influenza A virus [18]): Active; Activity (Influenza A virus [19]): Active; Activity (Influenza A virus [20]): Active; EC50 (Influenza A virus [21]): 1.75 nM
O=C1c2c(O)c(=O)ccn2N([C@@H](c2ccc(F)c(F)c2)c2ccc(-c3ccccc3)s2)[C@@H]2COCCN12	36.2	1100	11.1	39800	3580	–
O=C1c2c(O)c(=O)ccn2N([C@@H](c2ccc(F)c(F)c2)c2cc3ccccc3s2)[C@@H]2COCCN12	42.4	> 1180	5.98	> 50000	> 8360	–
O=C1c2c(O)c(=O)ccn2N([C@@H](c2ccc(F)cc2)c2cccs2)[C@@H]2COCCN12	5.06	7440	1.65	37600	22800	half-life [6]: 12.8 h; half-life [7]: 23.1 h; CLint scaled [8]: 1.62 mL/min/kg; CLint scaled [9]: 3.96 mL/min/kg
O=C1c2c(O)c(=O)ccn2N([C@H](c2cc(F)c(F)c(F)c2)c2cccs2)[C@@H]2COCCN12	1.91	13600	21.9	26000	1190	–
O=C1c2c(O)c(=O)ccn2N([C@@H](c2ccccc2)c2cccs2)[C@@H]2COCCN12	39.8	> 1260	21.8	> 50000	> 2300	–
O=C1c2c(O)c(=O)ccn2N([C@@H](c2ccc3ccccc3c2)c2cccs2)[C@@H]2COCCN12	42.3	960	53.6	40600	758	–
O=C1c2c(O)c(=O)ccn2N([C@H](c2ccc(F)c(F)c2)c2ccc(Cl)s2)[C@@H]2COCCN12	15.9	1510	30.8	24100	783	–
O=C1c2c(O)c(=O)ccn2N([C@@H](c2cccs2)c2cc(F)c(F)c(F)c2F)[C@@H]2COCCN12	5.64	> 8860	7.78	> 50000	> 6430	–
O=C1c2c(O)c(=O)ccn2N([C@H](c2cccc(F)c2)c2cccs2)[C@@H]2COCCN12	3.49	9840	26	34300	1320	–
O=C1c2c(O)c(=O)ccn2N([C@H](c2ccc(F)c(F)c2)c2ccc(Br)s2)[C@@H]2COCCN12	49.1	353	28.3	17300	613	–
